How the values were obtained:
Format in all cases: in vivo
[1] = tested on: Erysiphe graminis f.sp. hordei; assay: Erysiphe test (barley)/curative; conditions: curative, 7 days after inoculation
Method: (§1) Solvent: 25 parts by weight of N,N-dimethylacetamide
(§2) Emulsifier: 0.6 part by weight of alkylaryl polyglycol ether
(§3) To produce a suitable preparation of active compound, 1 part by weight of active compound or active compound combination is mixed with the stated amounts of solvent and emulsifier, and the concentrate is diluted with water to the desired concentration.
To test for curative activity, young plants are dusted with spores of Erysiphe graminis f.sp. hordei. 48 hours after the inoculation, the plants are sprayed with the preparation of active compound at the stated application rate.
(§4) The plants are placed in a greenhouse at a temperature of about 20° C. and a relative atmospheric humidity of about 80%, in order to promote the development of mildew pustules.
(§5) Evaluation is carried out 7 days after the inoculation. 0% means an efficacy which corresponds to that of the control, whereas an efficacy of 100% means that no infection is observed.

Phytophthora infestans = assay: whole plant or invertebrate
Leptosphaeria nodorum [2] = assay: Leptosphaeria nodorum test (wheat)/protective; conditions: application rate 6.25 g/ha, protective, 10 days after inoculation; for pest or weed control at 6.25 g/ha: Parastagonospora nodorum, 240 h, read-out: Efficacy in %
Method: as §1, §2, §3
(§6) To test for protective activity, young plants are sprayed with the preparation of active compound at the stated application rate. After the spray coating has dried on, the plants are sprayed with a spore suspension of Leptosphaeria nodorum. The plants remain in an incubation cabin at 20EC and 100% relative atmospheric humidity for 48 hours.
The plants are placed in a greenhouse at a temperature of about 15° C. and a relative atmospheric humidity of 80%.
(§7) Evaluation is carried out 10 days after the inoculation. 0% means an efficacy which corresponds to that of the control, whereas an efficacy of 100% means that no infection is observed.

[3] = tested on: Erysiphe graminis f.sp. tritici; assay: Erysiphe test (wheat)/curative; conditions: curative, 7 days after inoculation
Method: as §1, §2, §3
To test for curative activity, young plants are dusted with spores of Erysiphe graminis f.sp. tritici. 48 hours after the inoculation, the plants are sprayed with the preparation of active compound at the stated application rate.
as §4, §5

Leptosphaeria nodorum [4] = assay: Leptosphaeria nodorum test (wheat)/curative; conditions: curative, 10 days after inoculation
Method: as §1, §2, §3
(§8) To test for curative activity, young plants are sprayed with a conidia suspension of Leptosphaeria nodorum. The plants remain in an incubation cabin at 20° C. and 100% relative atmospheric humidity for 48 hours and are then sprayed with the preparation of active compound at the stated application rate.
The plants are placed in a greenhouse at a temperature of about 15° C. and a relative atmospheric humidity of about 80%.
as §7

[5] = tested on: Erysiphe graminis fsp. tritici; assay: Erysiphe test (wheat)/protective; conditions: protective, 7 days after inoculation
Method: as §1, §2, §3
To test for protective activity, young plants are sprayed with the preparation of active compound at the stated application rate.
After the spray coating has dried on, the plants are dusted with spores of Erysiphe graminis fsp. tritici.
as §4, §5

Puccinia recondita [6] = assay: Puccinia test (wheat)/protective; conditions: application rate 6.25 g/ha, protective, 10 days after inoculation; for pest or weed control at 6.25 g/ha: Puccinia recondita, 240 h, read-out: Efficacy in %
Method: as §1, §2, §3
as §6, with “conidia” for “spore”, “Puccinia recondita.” for “Leptosphaeria nodorum.”, “20° C.” for “20EC”
The plants are then placed in a greenhouse at a temperature of about 20° C. and a relative atmospheric humidity of 80%, in order to promote the development of rust pustules.
as §7

Sphaerotheca fuliginea = assay: Sphaerotheca test (cucumber)/protective; conditions: protective, 10 days after inoculation; for Emax at 2.5 g/ha / Emax at 12.5 g/ha: Podosphaera fuliginea, 240 h, read-out: % efficacy; for Emax at 12.5 g/ha: application rate 12.5 g/ha
Method: To test for protective activity, young plants are sprayed with the commercial active compound preparation at the stated application rate. After the spray coating has dried on, the plants are inoculated with an aqueous spore suspension of Sphaerotheca fuliginea. The plants then remain in a greenhouse at about 23° C. and about 70% relative atmospheric humidity.
Evaluation is carried out 10 days after the inoculation. 0% means an efficacy corresponding to that of the control, and an efficacy of 100% means that no infection is observed.

Fusarium nivale = Fusarium nivale test (triticale)/seed treatment; conditions: dry seed dressing, about 3 weeks after sowing
Method: About 3 weeks after sowing, the plants are evaluated for symptoms of snow mould.

Botrytis cinerea = assay: Botrytis test (beans)/protective; conditions: 48 h, application rate 250 g/ha, protective, two days after inoculation, read-out: % efficacy
Method: To test for protective activity, young plants are sprayed with the commercial active compound preparation at the stated application rate. After the spray coating has dried on, 2 small pieces of agar covered with Botrytis cinerea are placed on each leaf. The inoculated plants are placed in a darkened chamber at about 20° C. and 100% relative atmospheric humidity.
Two days after the inoculation, the size of the infected spots on the leaves is evaluated. 0% means an efficacy corresponding to that of the control, and an efficacy of 100% means that no infection is observed.

Puccinia recondita [7] = assay: Puccinia test (wheat)/curative; conditions: application rate 6.25 g/ha, curative, 10 days after inoculation
Method: as §1, §2, §3
as §8, with “Puccinia recondita.” for “Leptosphaeria nodorum.”, “hours. The plants” for “hours and”, “subsequently” for “then”
The plants are placed in a greenhouse at a temperature of about 20° C. and a relative atmospheric humidity of about 80%, in order to promote the development of rust pustules.
as §7

Rhizoctonia solani = Rhizoctonia solani test (cotton)/seed treatment; conditions: application rate 75 mg/kg of seed, dry seed dressing, after 8 days
Method: The active compounds are applied as dry seed dressing. This is prepared by extending the respective active compound with ground mineral to give a finely pulverulent mixture which ensures uniform distribution on the seed surface.
To dress the seed, the infected seed together with the seed dressing is shaken for 3 minutes in a sealed glass flask.
2×50 corns of seed are sown at a depth of 2 cm into standard soil which is infected with Rhizoctonia solani, and the seeds are cultivated in a greenhouse at a temperature of about 22° C. in seed trays which receive a light regimen of 15 hours per day.
Evaluation is carried out after 8 days. 0% means an efficacy which corresponds to that of the untreated control, while an efficacy of 100% means that no disease is observed.

Pyrenophora teres = Pyrenophora teres test (barley)/curative; conditions: application rate 6.25 g/ha, curative, 7 days after inoculation
Method: as §1, §2, §3
as §8, with “Pyrenophora teres.” for “Leptosphaeria nodorum.”, “hours. The plants” for “hours and”, “subsequently” for “then”
The plants are placed in a greenhouse at a temperature of about 20° C. and a relative atmospheric humidity of about 80%.
as §5

[8] = Phytophthora infestans, in Solanum lycopersicum, 72 h, read-out: % efficacy
[9] = application rate 5 g/ha, tomato, protective, 3 days after inoculation
[10] = application rate 75 mg/kg of seed
[11] = application rate 25 mg/kg of seed

CO/N=C(\C(=O)OC)c1ccccc1COc1ccccc1C [(T), kresoxim-methyl]
Efficacy in % ([1]; application rate 12.5 g/ha): 67%
Emax at 1 g/ha (Phytophthora infestans; [8]): 14%
pest or weed control at 6.25 g/ha (Leptosphaeria nodorum [2]): 0%
Efficacy in % ([3]; application rate 6.25 g/ha): 0%
Efficacy in % (Leptosphaeria nodorum [4]; application rate 12.5 g/ha): 50%
Efficacy in % ([5]; application rate 25 g/ha): 86%
pest or weed control at 6.25 g/ha (Puccinia recondita [6]): 25%

propineb [(A)]
% efficacy (Sphaerotheca fuliginea; application rate 25 g/ha): 45%

CSC(=O)c1cccc2nnsc12 [(β)]
% efficacy (Phytophthora infestans; [9]): 0%

CC(C)(C)C(O)C(Oc1ccc(-c2ccccc2)cc1)n1cncn1 (centres unmarked) [(C), bitertanol]
Emax at 2.5 g/ha (Sphaerotheca fuliginea; application rate 2.5 g/ha): 20%

O=[N+]([O-])c1cc(C(F)(F)F)c(Cl)c([N+](=O)[O-])c1Nc1ncc(C(F)(F)F)cc1Cl [(π), fluazinam]
Emax at 5 g/ha (Phytophthora infestans; [8]): 11%

N#Cc1c[nH]cc1-c1cccc2c1OC(F)(F)O2 [(Y), fludioxonil]
Efficacy in % (Fusarium nivale; [10]): 92%
pest or weed control at 6.25 g/ha (Leptosphaeria nodorum [2]): 25%
Efficacy in % ([3]; application rate 25 g/ha): 0%
pest or weed control at 6.25 g/ha (Puccinia recondita [6]): 13%

CCO[PH](=O)O [(O), fosetyl-Al]
Emax at 250 g/ha (Botrytis cinerea): 4%

CO/C=C(/C(=O)OC)c1ccccc1Oc1cc(Oc2ccccc2C#N)ncn1 [(U), azoxystrobin]
Emax at 2.5 g/ha (Sphaerotheca fuliginea; application rate 2.5 g/ha): 57%

CC(C)(C)C(O)(CCc1ccc(Cl)cc1)Cn1cncn1 (centres unmarked) [(D), tebuconazole]
Efficacy in % ([1]; application rate 6.25 g/ha): 33%
Efficacy in % ([1]; application rate 25 g/ha): 83%
Efficacy in % (Fusarium nivale; [11]): 20%
Emax at 5 g/ha (Phytophthora infestans; [8]): 26%
pest or weed control at 6.25 g/ha (Leptosphaeria nodorum [2]): 25%
Efficacy in % ([5]; application rate 6.25 g/ha): 0%
pest or weed control at 6.25 g/ha (Puccinia recondita [6]): 38%

Cc1ccc(N(SC(F)(Cl)Cl)S(=O)(=O)N(C)C)cc1 [(B2), tolylfluanide]
% efficacy (Sphaerotheca fuliginea; application rate 25 g/ha): 22%

CC1(C)CCC(Cc2ccc(Cl)cc2)C1(O)Cn1cncn1 (centres unmarked) [(W), metconazole]
Efficacy in % ([1]; application rate 6.25 g/ha): 33%
Efficacy in % (Puccinia recondita [7]): 50%
pest or weed control at 6.25 g/ha (Leptosphaeria nodorum [2]): 50%
Efficacy in % (Leptosphaeria nodorum [4]; application rate 12.5 g/ha): 25%
Efficacy in % ([5]; application rate 6.25 g/ha): 43%
pest or weed control at 6.25 g/ha (Puccinia recondita [6]): 75%

Cc1cc(C2CC2)nc(Nc2ccccc2)n1 [(R), cyprodinyl]
Emax at 5 g/ha (Phytophthora infestans; [8]): 0%
Efficacy in % (Puccinia recondita [7]): 33%
pest or weed control at 6.25 g/ha (Leptosphaeria nodorum [2]): 25%
Efficacy in % ([3]; application rate 25 g/ha): 17%
Efficacy in % (Leptosphaeria nodorum [4]; application rate 6.25 g/ha): 50%
Efficacy in % ([5]; application rate 12.5 g/ha): 0%
pest or weed control at 6.25 g/ha (Puccinia recondita [6]): 13%

CC(C)(C)C(O)C(Oc1ccc(Cl)cc1)n1cncn1 (centres unmarked) [(F), triadimenol]
Efficacy in % (Rhizoctonia solani): 48%
Efficacy in % ([1]; application rate 6.25 g/ha): 67%
Efficacy in % (Fusarium nivale; [11]): 52%
Emax at 5 g/ha (Phytophthora infestans; [8]): 0%
Efficacy in % (Pyrenophora teres): 0%
pest or weed control at 6.25 g/ha (Leptosphaeria nodorum [2]): 0%
Efficacy in % (Leptosphaeria nodorum [4]; application rate 6.25 g/ha): 25%
pest or weed control at 6.25 g/ha (Puccinia recondita [6]): 13%

O=C(Nc1ccccc1)N(Cc1ccc(Cl)cc1)C1CCCC1 [(ρ), pencycuron]
Efficacy in % (Fusarium nivale; [11]): 29%

CCC1(C(=O)N[C@H](C)c2ccc(Cl)cc2)C(C)C1(Cl)Cl (stereo partly drawn) [(ω), N-(R)-[1-(4-chloro-phenyl)-ethyl]-2,2-dichloro-1-ethyl-3t-methyl-1r-cyclopropane-carboxarnide]
% efficacy (Phytophthora infestans; [9]): 5%

O=C1C2CC=CCC2C(=O)N1SC(Cl)(Cl)Cl (centres unmarked) [(θ), captan]
Emax at 12.5 g/ha (Sphaerotheca fuliginea): 0%

CN(C)S(=O)(=O)N(SC(F)(Cl)Cl)c1ccccc1 [(B1), dichlorofluanide]
% efficacy (Sphaerotheca fuliginea; application rate 25 g/ha): 20%

CC(C)(C)C(=O)C(Oc1ccc(Cl)cc1)n1cncn1 (centres unmarked) [(E), triadimefon]
Emax at 2.5 g/ha (Sphaerotheca fuliginea; application rate 2.5 g/ha): 30%

CCCN(CC)CC1COC2(CCC(C(C)(C)C)CC2)O1 (centres unmarked) [(δ), 8-t-butyl-2-(N-ethyl-N-n-propyl-amino)-methyl-1,4-dioxaspiro[5.4]-decane]
Efficacy in % ([1]; application rate 6.25 g/ha): 0%
% efficacy (Sphaerotheca fuliginea; application rate 2.5 g/ha): 10%
Efficacy in % (Leptosphaeria nodorum [2]): 25%
Efficacy in % (Leptosphaeria nodorum [4]; application rate 12.5 g/ha): 25%
Efficacy in % ([5]; application rate 6.25 g/ha): 14%
Efficacy in % (Puccinia recondita [6]): 13%

mancozeb [(II)]
% efficacy (Phytophthora infestans; application rate 50 g/ha, tomato, protective, 3 days after inoculation): 54%

O=C1c2ccccc2C(=O)N1SC(Cl)(Cl)Cl [(K), folpet]
Emax at 10 g/ha (Phytophthora infestans; [8]): 27%

cymoxanil [(M)]
% efficacy (Phytophthora infestans; in vivo): 12%

N#Cc1c[nH]cc1-c1cccc(Cl)c1Cl [(Fenpiclonil) V, fenpiclonil]
Efficacy in % (Fusarium nivale; [10]): 67%

Fc1ccc([C@]2(Cn3cncn3)O[C@H]2c2ccccc2Cl)cc1 (racemic) [(V), epoxiconazole]
Efficacy in % ([1]; application rate 12.5 g/ha): 92%
pest or weed control at 6.25 g/ha (Leptosphaeria nodorum [2]): 50%
pest or weed control at 6.25 g/ha (Puccinia recondita [6]): 81%

COc1ccc(/C(=C/C(=O)N2CCOCC2)c2ccc(Cl)cc2)cc1OC [(L), dimetomorph]
Emax at 1 g/ha (Phytophthora infestans; [8]): 0%

COCC(=O)N(c1c(C)cccc1C)C(C)C(=O)OC (centres unmarked) [(N), metalaxyl]
Emax at 5 g/ha (Phytophthora infestans; [8]): 1%

CC1(C(=O)Nc2ccc(O)c(Cl)c2Cl)CCCCC1 [(ε), 2,3-dichloro-4-(1-methylcyclohexylcarbonylamino)-phenol]
Emax at 5 g/ha (Phytophthora infestans; [8]): 14%

Cc1cc(C)nc(Nc2ccccc2)n1 [(Q), pyrimethanil]
Emax at 12.5 g/ha (Sphaerotheca fuliginea): 10%

Source: patent US6372737B1 (priority 1996, dated 2002)
